Results reported in patent US20110028444A1, “PHARMACEUTICALLY ACCEPTABLE SALTS OF ANTI-INFECTION QUINOLONE COMPOUNDS” (priority 2008, published 2011).
Values after ≈ are worked out from the molar mass of the structure shown. Read-outs that look alike come from different tables or passages of the source.

Key:
[1] = system: New Zealand rabbit ear vein and surrounding tissues; test: Vascular irritation tests; assay type: in vivo, New Zealand rabbits; conditions: vein injection once a day for 3 days, high and low doses
Text: Sixteen New Zealand rabbits were divided into 4 groups: a control group and three treatment groups for compounds 4, 5, and 6, respectively; each group had 4 rabbits. The rabbits of the treatment groups were vein-injected on their left ears with high doses of the test samples and on their right ears with low doses of the test samples. The rabbits of the control group were rein-injected on their both left and right ears with sodium chloride solution. The injections continued for 3 days, once a day. Two rabbits from each group were anatomized after 24 hours of each injection.

[2] = system: Pseudomonas aeruginosa; test: In-vitro antibacterial test, agar dilution MIC; assay type: cell-based; conditions: for MIC: Pseudomonas aeruginosa, read-out: In-vitro MIC
Text: (§4) The test bacterial strains were the standard quality control test strains of Klebsiella pneumoniae strains (Strains No. CMCC 46114-8), Pseudomonas aeruginosa (Strains No. ATCC 27853), Escherichia coli (Strains No. ATCC25922), and Staphylococcus aureus cocci (Strains No. ATCC25925). Other bacteria included those isolated from sputum, throat swab or urine of patients with acute bacterial respiratory tract infection or urinary tract infection and identified by the hospitals.
(§5) HCl levofloxacin injection and NaCl ciprofloxacin lactate injection were diluted with sterilized distilled water to a concentration of 1920 μg/mL.

[3] = system: Streptococcus pneumoniae; test: In-vitro antibacterial test, agar dilution MIC; assay type: cell-based; conditions: Streptococcus pneumoniae, read-out: In-vitro MIC
Experimental: (§1) Test method: the agar dilution method was used for the minimum inhibitory concentration (MIC) determination. The antibacterial chemicals were mixed with given amounts of agar in various concentrations and the mixtures were made into solid plates. Each plate had the antibacterial concentration two times higher than the next plate. Bacteria species were then added to the surface of the plates, cultured, and observed for their growth.
(§2) Other bacteria included those isolated from sputum, throat swab or urine of patients with acute bacterial respiratory tract infection or urinary tract infection and identified by the hospitals.
(§3) (S)-6-fluoro-1-methyl-4-oxo-7-(1-piperazinyl)-1H,4H-[1,3]thiazeto[3,2-a]quino line-3-carboxylic acid lactate and other test samples, equivalent to 96 mg of ulifloxacin, were dissolved in sterilized distilled water to make up 50 mL of each solution.

[4] = system: Klebsiella pneumoniae; test: In-vitro antibacterial test, agar dilution MIC; assay type: cell-based
Text: as §4, §5

[5] = system: Enterobacter cloacae; test: In-vitro antibacterial test, agar dilution MIC; assay type: cell-based; conditions: agar dilution, read-out: In-vitro MIC
Text: as §4, §5

[6] = Solubility test: maximum solubility in water; assay type: physicochemical; conditions: thermodynamic from solid
Experimental: Three lots of mesylates and three lots of lactates, respectively, were subjected to preliminary tests for maximum solubility in water. At ambient temperature (25° C.), 0.2 g of sample was dissolved in 1 mL of water. To the solution was added 0.1 g of the sample each time until the sample could no longer be dissolved. The amount of sample dissolved was the maximum solubility.

[7] = system: Enterococcus faecalis; test: In-vitro antibacterial test, agar dilution MIC; assay type: cell-based; conditions: read-out: In-vitro MIC
Text: as §4, §5

[8] = system: SD rats; conditions: for NOAEL (no observed adverse effect level) / targeted organ of toxicity: SD rats; for NOAEL (no observed adverse effect level): 28 days continuous intravenous administration, calculated based on NM394; for targeted organ of toxicity: intravenous; for rats with crystals in renal tubules / rats with kidney protein casts / rats with mild cortical tubular dilatation: after 28 days
Experimental: The dose without toxic reaction was thereby determined and the long term toxicity to SD rats was tested. One hundred forty SD rats were randomly divided into 7 groups depending on their body weight and sex; each group had 20 rats with 10 males and 10 females. […] The rats were administrated by intravenous injection, once a day for consecutive 4 weeks. The recovery was monitored for 2 weeks after treatment.
Drug preparation: the drugs were dissolved with a saline solution to the desired concentration before administration. Administration: intravenous injection. Delivery period: 28 days continuously. Observation and inspection: Observation and inspection projects, targets and time: including the general state of observation (7), hematologic (16), biochemical blood test (18), urine (10) and pathological examination.
General observation: the appearance of signs, behavior, glands, respiratory and stool, daily observation and timely recording, discovering dead or dying animals, timely anatomical examination, food intake, and body weight once weekly.
Blood tests: abdominal aortic blood for hematology testing, in the 16 testing indicators, leukocyte classification using whole blood smear, Wright stain staining; prothrombin time (PT) with a 0.109 mmol/L of citrate Citrus medica sodium (with blood volume ratio of 1:9) anticoagulant, 3000 r/min centrifugal 10 min, taking with BE Thromotimer plasma coagulation analyzer (Germany) determination; other indicators to EDTA anticoagulant, using SWELAB AC920EO automated hematology analyzer (Sweden).
Biochemical blood tests: blood sampling method same as above, blood serum obtained by 3000 r/min centrifugal 10 min. In the 21 indicators, the Na+, K+, Cl^− were determined using EasyLyte Plus Na/K/Cl analyzer (USA), the other indexes of blood were determined using a Hitachi 7020 automatic biochemical analyzer (Japan) determination.
Urine tests: 16 h urine collection, using [sequence] 100 urine analyzer.
Pathology: after anesthesia, the animal was killed by blood letting of the abdominal aorta. System anatomy and visual observation of changes in various organs were performed; and organ weights were determined. Tissue was fixed in 10% neutral formalin; plates were made by conventional paraffin producers, HE staining, and light microscopy.
Statistical analysis: In the different groups, the body weight, hematology, blood chemistry, urine measurements, organ weights, organ coefficient were calculated for the mean±standard deviation and t-test comparison between groups. Pathological abnormalities according to their incidence and severity were compared between groups.

[9] = system: Staphylococcus aureus; test: In-vitro antibacterial test, agar dilution MIC; assay type: cell-based; conditions: for MIC: Staphylococcus aureus, read-out: In-vitro MIC
Text: as §4, §5

[10] = system: Klebsiella pneumoniae, Pseudomonas aeruginosa, Staphylococcus aureus, Escherichia coli, Enterococcus faecalis, Streptococcus pneumoniae, Enterobacter cloacae …; test: In-vitro antibacterial tests, summary over the tested bacteria; assay type: cell-based; conditions: for antibacterial activities compared with compounds 7 and 8: against the above four bacteria, concentrations calculated as equivalents to NM394; for antibacterial activity (in words): against the eight tested bacteria
Experimental: as §1, §2, §3

[11] = system: Vibrio cholerae; test: In-vitro antibacterial test, agar dilution MIC; assay type: cell-based
Text: as §4, §5

[12] = system: Escherichia coli; test: In-vitro antibacterial test, agar dilution MIC; assay type: cell-based; conditions: for MIC: Escherichia coli, read-out: In-vitro MIC
Text: as §4, §5

[13] = system: rats; conditions: rat, in vivo; cited from earlier work
[14] = system: Sprague-Drwlog rats; conditions: intravenous injection, four weeks; cited from earlier work
[15] = system: mice; conditions: mouse, in vivo; cited from earlier work
[16] = high dose group (60 mg/kg·bw), tissue microscopy

| Molecule | irritation to ear vein and surrounding tissues [1] | MIC [2] [µg/mL] | MIC ([3]; agar dilution) [µg/mL] | MIC [5] [µg/mL] | NOAEL (no observed adverse effect level) [8] [mg/kg·bw] | targeted organ of toxicity [8] | rats with crystals in renal tubules [8, 16] | rats with kidney protein casts [8, 16] | rats with mild cortical tubular dilatation [8, 16] | MIC [9] [µg/mL] | antibacterial activities compared with compounds 7 and 8 [10] | antibacterial activity (in words) [10] | also measured |
| --- | --- | --- | --- | --- | --- | --- | --- | --- | --- | --- | --- | --- | --- |
| CS(=O)(=O)O.C[C@@H]1Sc2c(C(=O)O)c(=O)c3cc(F)c(N4CCNCC4)cc3n21 [Compound 5, (S)-6-fluoro-1-methyl-4-oxo-7-(1-piperazinyl)-1H,4H-[1,3]thiazeto[3,2-a]quinoline-3-carboxylic acid mesylate] | no irritation | 0.25 | 0.01 | 0.5 | 30 | the kidney | two | one | two | 0.25 | slightly stronger | relatively strong antibacterial activity | MIC ([4]; Klebsiella pneumoniae): 0.02 µg/mL; solubility ([6]; 25 °C, water): 490 mg/mL; MIC [7]: 0.2 µg/mL; MIC ([11]; Vibrio cholerae, read-out: In-vitro MIC): 0.02 µg/mL |
| CC(O)C(=O)O.C[C@@H]1Sc2c(C(=O)O)c(=O)c3cc(F)c(N4CCNCC4)cc3n21 [Compound 4, (S)-6-fluoro-1-methyl-4-oxo-7-(1-piperazinyl)-1H,4H-[1,3]thiazeto[3,2-a]quinoline-3-carboxylic acid lactate] | no irritation | 0.25 | – | 0.5 | 30 | the kidney | 3 | one | 3 | 0.125 | slightly stronger | relatively strong antibacterial activity | MIC [12]: 0.01 µg/mL; MIC [3]: 0.02 µg/mL; solubility ([6]; maximum solubility in water, ambient temperature (25° C.), average of two tests, preliminary, read-out: Water Solubility): 70 mg/mL; MIC ([7]; agar dilution): 0.5 µg/mL; rats with mild interstitial inflammatory cell infiltration [8, 16]: 1 |
| CC1Sc2c(C(=O)O)c(=O)c3cc(F)c(N4CCNCC4)cc3n21 (racemic) [Ulifloxacin, 6-fluoro-1-methyl-4-oxo-7-(1-piperazinyl)-1H,4H-[1,3]thiazeto[3,2-a]quinoline-3-carboxylic acid, reference compound] | – | – | 0.031 (≈ 0.0887 µM) | 1 (≈ 2.86 µM) | – | – | – | – | – | – | – | – | MIC ([12]; agar dilution): 0.08 µg/mL (≈ 0.229 µM); toxic effects of intravenous injection [13]: convulsions, difficult breathing, injection site redness, swelling, and necrosis; NOAEL (no observed adverse effect level) dose [14]: 3 mg/kg; MIC ([2]; agar dilution): 0.5 µg/mL (≈ 1.43 µM); toxic effects of intravenous injection [15]: losing weight, testicular atrophy, and visible pulmonary congestion; MIC ([9]; agar dilution): 0.5 µg/mL (≈ 1.43 µM) |
| (S)-6-fluoro-1-methyl-4-oxo-7-(1-piperazinyl)-1H,4H-[1,3]thiazeto[3,2-a]quinoline-3-carboxylic acid gluconate [Compound 6] | no irritation | – | – | – | – | – | – | – | – | – | slightly stronger | relatively strong antibacterial activity | In-vitro MIC ([12]; agar dilution): 0.01 µg/mL; In-vitro MIC ([2]; agar dilution): 0.25 µg/mL; In-vitro MIC [4]: 0.02 µg/mL; In-vitro MIC ([9]; agar dilution): 0.25 µg/mL; In-vitro MIC ([11]; agar dilution): 0.02 µg/mL |
